Values after ≈ are worked out from the molar mass of the structure shown.
Columns and labels:
[1] = Distribution coefficient determination; type: physicochemical; details: pH 7.4
Protocol: (§1) Solubility and distribution coefficient are among the major physicochemical properties of a drug that greatly determine its absorption in physiological compartments. […] The distribution coefficient (logD, pH 7.4) of 4DPG was determined to be 0.815 ± 0.19, which indicates the slightly lipophilic nature of the molecule. For administration to animals, the appropriate quantity of 4DPG was formulated in the pre-calculated volume of saline with the help of a solubilizer (Tween-80). Next, to assess the hemocompatibility of 4DPG and establish if the compound could be considered safe for intravenous (i.v.) administration, we performed in vitro hemolysis assay by incubating the RBCs with increasing concentrations of the molecule.
(§2) The distribution coefficient, solubility, and hemocompatibility of 4DPG was determined adopting our previously described protocol[37],[40]. For hemolysis assay, increasing concentrations (5, 10, and 20 µg/mL) of 4DPG were employed. Distilled water (DW) and PBS were considered as […].

[2] = test system: SW-620/5-FU-R cells; test: Cellular fractionation and western blotting of p53 and Vimentin; type: cell-based; details: 300 nM, 48 h, vs vehicle
Protocol: (§3) Fig. 3 Chk2-dependent role of 4DPG in modulating p53 and repressing Vimentin expression in 5-FU-R cells. A Immunocytochemistry results showing the Vimentin expression level in SW-620/5-FU-R cells treated/transfected with scramble, SiChk2, scramble plus 4DPG, SiChk2 plus 4DPG, vehicle, PV1019, 4DPG, and PV1019 plus 4DPG for 48 h. Scale bars: 50 µm. […] C Matrigel invasion assay results showing invaded HCT-116/5-FU-R and SW-620/5-FU-R cells following 48 h of transient transfection with GFP and GFP-Chk2 plasmid construct. Scale bars: 50 µm. D Quantification of the number of invaded cells per field from the above experimental conditions. n = 3, error bars, mean ± SD; *P < 0.05, ***P < 0.001. E Immunocytochemistry results displaying Vimentin expression levels in HCT-116/5-FU-R and SW-620/5-FU-R cells after 48 h of transient transfection with pCDNA3 and/or HA-Chk2 plasmid construct. Scale bars: 50 µm. F Immunoprecipitation with Vimentin or p53 followed by western blotting analysis of p53 in SW-620/5-FU-R cells treated with vehicle and/or 4DPG (300 nM) for 48 h. G Cytosolic (left panel) and nuclear (right panel) extracts of SW-620/5-FU-R cells treated with vehicle and/or 4DPG (300 nM) for 48 h showing protein expression of Vimentin and p53. Tubulin and lamin expression was considered as endogenous loading controls for cytosolic and nuclear fractions, respectively.
Moreover, to gain mechanistic insights into how 4DPG-induced activation of Chk2 suppresses EMT and invasiveness, we examined the downstream substrates of Chk2. Tumor suppressor p53 acts as a direct substrate of Chk2 that regulates cell cycle, DNA repair, or apoptosis of cancer cells in response to DNA damage[27],[39]. We attempted to investigate whether there any molecular interaction takes place between Vimentin and p53 in these 5-FU-R cells. Our immunoprecipitation analysis unveiled that 4DPG potentially interrupted the association of Vimentin and p53 in SW-620/5-FU-R cells. […] Since 4DPG disrupted the Vimentin–p53 association, we were curious to see the consequences on p53 expression in various cellular compartments. We separated cytosolic and nuclear fractions of SW-620/5-FU-R cells treated with vehicle and/or 4DPG and conducted western blotting analysis considering relevant loading controls.
SW-620/5-FU-R cells seeded in 90-mm Petri dishes were treated with vehicle and/or 4DPG for 48 h, following overnight incubation. Cells were then harvested, washed with PBS; cytosolic and nuclear extracts were prepared following our established protocol[37],[56].

[3] = test system: RBCs; test: In vitro hemolysis assay; type: cell-based; details: 20 µg/mL (highest tested concentration), 1 h incubation
Protocol: as §1, §2
Supplementary Figure S4. Hemocompatibility and exposure of 4DPG. (A) Representative images of RBC suspension incubated with distilled water (negative control), PBS (positive control), and increasing concentrations of 4DPG for 1 h. (B) Quantification of hemolysis in above treatment conditions by measuring the optical density at 540 nm. […]

[4] = Solubility determination; type: physicochemical
Protocol: as §1, §2

[5] = test system: tumor tissues of orthotopic rat colorectal carcinoma; test: Immunohistochemical analysis of tumor tissues; type: in vivo, Wistar rats; details: 25 mg/kg, vs saline-treated group
Protocol: The procedure was performed following our pre-standardized protocol with minor modifications. Paraffin-embedded tissue sections were prepared from the tumors of saline, 5-FU, and 4DPG-treated groups of animals. Primary antibodies used: p-Chk2 (T68), Chk2, p53, p-Vimentin (S38) and Vimentin at 1:150 dilution for overnight at 4 °C.

[6] = test system: Vimentin–p53 association in SW-620/5-FU-R cells; test: Immunoprecipitation of Vimentin and p53; type: cell-based; details: 300 nM, 48 h, vs ample p53 in vehicle
Protocol: as §3, with “G Cytosolic (left panel) and nuclear (right panel) extracts of SW-620/5-FU-R cells treated with vehicle and/or 4DPG (300 nM) for 48 h showing protein expression of Vimentin and p53. Tubulin and lamin expression was considered as endogenous loading controls for cytosolic and nuclear fractions, respectively.” left out
For immunoprecipitation analysis, the previously described procedure was followed with minor modification. […] Following careful washing with lysis buffer, the immunoprecipitates were analyzed by western blotting.

Structure (SMILES): COc1cc([C@@H]2c3cc4c(cc3C[C@H]3COC(=O)[C@@H]32)OCO4)cc(OC)c1O[C@@H]1O[C@H](CO)[C@@H](O)[C@H](O)[C@H]1O [4DPG, 4′-demethyl-deoxypodophyllotoxin glucoside]
- distribution coefficient (logD) [1]: 0.815 ± 0.19
- augmentation in p53 expression, cytosolic fraction [2]: 1.65 fold
- decrease in Vimentin level, nuclear fraction [2]: 20 fold
- downregulation of Vimentin level, cytosolic fraction [2]: 2.2 fold
- increase in p53, nuclear fraction [2]: 2.2 fold
- hemolysis [3]: 5.8%
- solubility ([4]; simulated gastric fluid (SGF, pH 1.2)): 539.38 ± 91 µg/mL (≈ 987 µM)
- solubility ([4]; simulated intestinal fluid (SIF, pH 6.8)): 712.92 ± 172 µg/mL (≈ 1300 µM)
- p-Vimentin (ser38) and Vimentin expression levels in tumor tissues (immunohistochemistry) [5]: decreased
- protein levels of p-Chk2 (Thr68) and p53 in tumor tissues (immunohistochemistry) [5]: marked increase
- p53 detected in Vimentin pull-down lysates [6]: negligible p53 expression
